The text below walks through data of patent publication US9463256B2, “Pretargeting kit, method and agents used therein” (KONINKLIJKE PHILIPS N.V., priority 2010, dated 2016).

The assay is described as follows: Second order kinetic constants of the reactions between CC49-TCO constructs and ^177Lu-28. The assay is classed as physicochemical. Particulars: new TCOs conjugated to CC49, reaction with ^177Lu-28, procedures of Example 5. The protocol:
Typically, 1 mg CC49 (5 mg/mL solution in PBS) was modified with 0.6 molar (for kinetic measurements) or 10 molar eq. (for in vivo studies) of TCO-NHS constructs in a total volume of 250 μL PBS. The pH was adjusted to 9 with 1 M sodium carbonate buffer. The reactions were carried out under agitation for 30 min at RT in the dark. Subsequently, the TCO-modified mAbs were extensively washed with PBS using Amicon Ultra-15 centrifugal devices. The numbers of TCO groups per antibody were determined with a tetrazine titration, outlined below.
Tetrazine-DOTA 28 was radiolabeled with carrier-added ^177Lu. mAb (25 μg) modified with ca. 0.6 molar eq. TCO was reacted with 3 molar eq. of ^177Lu-28 (0.5 nM). mAb (25 μg) modified with ca. 10 molar eq. TCO was reacted with 15 molar eq. of ^177Lu-28 (2.5 nM). The reactions were carried out in 50 μL PBS pH 7.4 at 37° C. for 10 min. The reaction mixtures were analyzed by SDS-PAGE and phosphor imager and the reaction yields were determined from the radioactivity in the bands corresponding to the mAb. The counts were quantified with AIDA Image Analyzer software (Raytest).
Tetrazine-DOTA 28 was radiolabeled with carrier-added ^177Lu at a specific activity of 3 MBq/μg. ^177Lu-28 (33 nM) was reacted with increasing concentrations of CC49 modified with 1 eq. of TCO (0.33, 1, and 1.67 μM) in 200 μL PBS, pH 7.4 at 37° C. for 5 min. At selected times (15, 30, 45, 60, 90, 120, 180, and 300 sec) a 20 μL sample was withdrawn and quenched with tetrazine 6 (FIG. 5; described in Rossin et al. Angew Chem Int Ed 2010, 49, 3375) (1.5 μL, 5 mg/mL in DMF). Aliquots of each mixture were analyzed by SDS-PAGE and phosphor imager and the cycloaddition yields were determined from the radioactivity in the bands corresponding to the mAb. The counts were quantified with AIDA Image Analyzer software (Raytest).
The newly synthesized TCO constructs were evaluated with respect to their reactivity towards tetrazine 28. The procedures are described in Example 5.

Structures are written as SMILES.

In the case of `CC1(CC(=O)ON2C(=O)CCC2=O)CC/C=C/CCC1` (stereo not shown) [compound 58, (E-Major,minor)-2,5-Dioxopyrrolidin-1-yl 2-(1-methylcyclooct-4-en-1-yl)acetate], the “Second order kinetic constant” value worked out at 323500 ± 43320 M⁻¹ s⁻¹.
